Source: patent US20220048987A1, “METHOD OF TREATMENT TO PREVENT OR REVERSE AGE-ASSOCIATED INFLAMMATION, COGNITIVE DECLINE, AND NEURODEGENERATION” (The Board of Trustees of the Leland Stanford Junior …, priority 2020, published 2022)
Entries after “also recorded” stand apart in the source; their conditions may differ.

Tests used:
Assay type in all cases: in vivo, mouse
aged mice [1] = assay: Electrophysiology: hippocampal CA1 long-term potentiation (LTP); conditions: aged (20-22 mo) mice, 2.5 mg/kg/d, 6 weeks; 2.5 mg/kg/day
Protocol: To measure the cellular mechanism of learning and memory, a modified protocol previously described (Latif-Hernandez et al., Frontiers in cellular neuroscience 10, 252, (2016), incorporated herein by reference) was used. Mice were euthanized by cervical dislocation, and hippocampus (HC) was rapidly dissected out into ice-cold (4° C.) artificial cerebrospinal fluid (ACSF), saturated with carbogen (95% O2/5% CO2). ACSF consisted of (in mM): 124 NaCl, 4.9 KCl, 24.6 NaHCO3, 1.20 KH2PO4, 2.0 CaCl2, 2.0 MgSO4, 10.0 glucose, pH 7.4. […] Slices were carefully positioned on a R6501A multi-electrode array (Alpha MED Scientific Inc., Osaka, Japan) with electrodes arrayed in an 8×2 matrix with interpolar distance of 150 μm; each matrix measured 50 μm×50 μm. After 30 min incubation, the field excitatory postsynaptic potentials (fEPSPs) in CA1 were recorded by stimulating downstream electrodes in the CA1 and CA3 regions along the Schaffer collateral pathway. […] The time course of the fEPSP was calculated as the descending slope function for all experiments. […] The mean baseline fEPSP value was calculated and percentage change from baseline after the TBS was analyzed for LTP.

aged mice [2] = assay: Chemokine and cytokine multiplex assay of plasma and hippocampus of treated mice; conditions: aged (20-22 mo) mice, 2.5 mg/kg/d by gavage, 6 weeks
Protocol: PGE2, Butaprost, PF04418948 and Iloprost were purchased from Millipore-Sigma (Burlington, Mass., USA). ONO-AE248 and ONO-AE1-329 were gifts from Ono Pharmaceuticals (Osaka, Japan). Compound 52 (Charnwood Molecular Ltd, Loughborough, UK) and PF04418948 (Millipore-Sigma, Burlington, Mass., USA) were resuspended in 40% PEG (Sigma-Aldrich) and 60% of a 30% Kolliphor HS15 solution (Sigma-Aldrich), and administered orally at 10 mg/kg/d and 2.5 mg/kg/d, respectively. U-^13C-Glucose, U-^13C-Lactate, U-^13C-Glutamine, and U-^13C-Pyruvate were purchased from Cambridge Isotopes (Tewksbury, Mass., USA). HUSH-29 plasmids containing shRNAs to human GYS1 were purchased from Origene Technologies (Rockville, Md., USA). Human monocyte derived macrophages were incubated with 1640 Media with GlutaMAX+HEPES without sodium pyruvate (ThermoFisher, catolog No. 72400146). […]
Hippocampal lysates or mouse plasma were stored at −80° C. and cytokine analysis was carried out at the Human Immune Monitoring Core (Stanford University) or Eve Technologies (Calgary, Alberta, Canada) using Luminex mouse 39-plex kits and Human 71-plex kits. Plates were read using a Luminex LabMap200 instrument or a MSD Chemiluminescence instrument with a lower bound of 100 beads per sample per measured cytokine. […] Mean fluorescence intensity (MFI) was averaged over duplicate wells for each cytokine per sample on each plate. […]

aged mice [3] = assay: Nanostring transcriptomics of peritoneal macrophages from treated mice
Protocol: For gene expression analysis on the NanoString nCounter system, 100 ng of RNA was hybridized to a multiplexed nucleotide probe pool for 16 hours at 65° C. Enriched targets were purified and quantified using the nCounter MAX Analysis System. NanoString data analysis was performed by Canopy Biosciences (St. Louis, Mo.). Raw counts were normalized using the geometric mean of both positive control probes (technical variability) and housekeeping gene probes (assay input variability). Normalized data was uploaded to the interactive analysis platform Rosalind (https://rosalind.onramp.bio/), with a HyperScale architecture developed by OnRamp BioInformatics, Inc. (San Diego, Calif.) Read Distribution percentages, violin plots, identity heatmaps, and sample MDS plots were generated as part of the QC step. The limma R library1 was used to calculate fold changes and p-values and perform optional covariate correction. Clustering of genes for the final heatmap of differentially expressed genes was done using the PAM (Partitioning Around Medoids) method using the fpc R library2 that takes into consideration the direction and type of all signals on a pathway, the position, role and type of every gene, etc. Functional enrichment analysis of pathways, gene ontology, domain structure and other ontologies was performed using HOMER3. Several database sources were referenced for enrichment analysis, including Interpro4, NCBI5, MSigDB6,7, REACTOME8, WikiPathways9. Enrichment was calculated relative to a set of background genes relevant for the experiment.

[4] = aged mice, 2.5 mg/kg/d, 6 weeks

With `COc1ccc2cc(OCC3(C(=O)O)CN(C(=O)c4ccc(F)cc4)C3)ccc2c1` [PF-04418948] the “LTP in CA1 hippocampal region of aged mice” value (aged mice [1]) was “restored hippocampal memory function as well as LTP to youthful levels; also recorded: rescued”, the “pro-inflammatory factors in blood and hippocampus” value (aged mice [2]) was “reduced levels of pro-inflammatory factors not only in blood but also in hippocampus” and the “expression of glycolytic and TCA genes in peritoneal macrophages” value (aged mice [3]; aged (20-22 mo) mice, 2.5 mg/kg/d for 6 weeks) was “restores expression levels of glycolytic and TCA genes in aged mice”. For the same compound, the “age-related upregulation of pro-inflammatory gene transcripts and downregulation of glycolytic and TCA gene transcripts in macrophages” value (aged mice [3]; [4]) was “reciprocally reversed”, the “top differentially regulated chemokine and cytokine transcripts in peritoneal macrophages” value (aged mice [3]; [4]) was “shifts expression towards young macrophage levels” and the “transcriptome of peritoneal macrophages (clustering of 1449 genes, PCA)” value (aged mice [3]; young (3-4 mo) and aged (20-22 mo) mice, 2.5 mg/kg/d, 6 weeks, 2.5 mg/kg/day) was “cluster with young mice treated with vehicle or PF-04418948; also recorded: significant shift away from vehicle-treated aged mice toward young macrophages”.
